Read-outs that look alike come from different tables or passages of the source.
Assays:
L. major [1] = assay: ChEMBL dataset of pIC50 values against L. major used for the RF model (Table S1); type: cell-based, Leishmania major; note: call rule not given here
From the text: From the ChEMBL database (https://www.ebi.ac.uk/chembl/, accessed on 10 January 2021), we selected a diverse set of 1085 structures that were initially classified according to their predicted activity against L. major.
Excluding these structures minimized the differences in activity values resulting from errors and differences in experimental protocols. […] Standardizer software [JChem, version 16.11.28 (2016), calculation module developed by ChemAxon, https://www.chemaxon.com/, accessed on 20 January 2021] was used to canonize all simplified molecular-input line-entry system (SMILES) codes. After duplicate structures were removed, those with higher pIC50 values were eliminated, facilitating the generation of more restrictive models.

L. major [2] = test system: L. major; parameters: method as in ChEMBL; conditions: ref ChEMBL, cited from earlier work
[3] = Active/Inactive class assigned to the ChEMBL pIC50 value for Random forest model construction, ref ChEMBL
[4] = ChemBL structures with pIC50 values used for Random forest model construction, L. major
[5] = Active/Inactive class assigned to ChemBL structures for Random forest model construction (Table S1)
[6] = ChemBL structures with pIC50 values used for Random forest model construction (Table S1)

Row | Compound | Outcome (L. major [1]; [3]) | pIC50 Value (L. major [2]; [4]) | Outcome (L. major [1]; [5]) | pIC50 Value (L. major [2]; [6])
1 | CCCN1CN(CC(=O)O)CSC1=S [CHEMBL4287780] | Inactive | 4.41 | – | –
2 | COc1cc(/C=N/NC(N)=S)ccc1OCc1cn(CC(=O)c2ccc(F)cc2)nn1 [CHEMBL4170543] | Active | 5.16 | – | –
3 | CC1=N[C@H](C)Cc2c(-c3cccc(Cl)c3)ccc(O)c21 [CHEMBL1275866] | Inactive | 4.28 | – | –
4 | CC(=O)C1=C(C)NC(=S)NC1c1ccccc1 (stereo not shown) [CHEMBL2359517] | – | – | Active | 5.50
5 | Cc1ccc(/C=C2/C(=O)NN(c3ccc(F)cc3)C2=O)o1 [CHEMBL1256858] | Inactive | 4.04 | – | –
6 | Cc1ccsc1C1=NNC(c2cc3cccc(C)c3nc2Cl)C1 (stereo not shown) [CHEMBL2235718] | – | – | Active | 5.64
7 | CCOC(=O)c1ccc(-c2c(-c3ccccc3)nc3ccccn23)cc1 [CHEMBL2151866] | Active | 5.28 | – | –
8 | COc1ccc(CCN(C)CCCC(C#N)(c2ccc(OC)c(OC)c2)C(C)C)cc1OC (stereo not shown) [CHEMBL6966] | – | 4.39 | – | –
9 | CCCC/C=C/C=C/c1nc2ccccc2n2cccc12 [CHEMBL3260214] | – | – | Active | 5.43
10 | COc1ccc(-c2ccc3cc(C)nc(C)c3c2O)c2cc(C)cc(OC)c12 [CHEMBL224952] | Inactive | 4.00 | – | –
11 | CCOc1ccc(N2C(=O)C(c3ccccc3)(c3ccccc3)C2c2cn(C)c3ccccc23)cc1 (stereo not shown) [CHEMBL2071562] | – | – | Active | 5.93
12 | CNC(=N)c1ccc(N2CCN(c3nnc(-c4ccc([N+](=O)[O-])o4)s3)CC2)cc1.Cl [CHEMBL1783201] | Inactive | 4.64 | – | –
13 | Fc1cccc(Cl)c1Cc1nn2c(-c3ccccc3)nnc2s1 [CHEMBL1256825] | Inactive | 4.00 | – | –
14 | CCN(C)c1ccc(Nc2c3ccccc3nc3ccccc23)cc1 [CHEMBL86724] | – | – | Active | 6.00
15 | c1ccc2c(-c3cnc4n3CCS4)c[nH]c2c1 [CHEMBL1255759] | Inactive | 4.11 | – | –
16 | N=C(N)c1ccc(OCCCCCOc2ccc(C(=N)N)cc2)cc1 [CHEMBL55] | Inactive | 4.82 | – | –

Row | Compound | Outcome (L. major [1]; [3]) | pIC50 Value (L. major [2]; [4]) | Outcome (L. major [1]; [5]) | pIC50 Value (L. major [2]; [6])
17 | CN(C)c1ccc(Nc2c3ccc(NC(=O)CCN4CCCC4)cc3nc3cc(NC(=O)CCN4CCCC4)ccc23)cc1 [CHEMBL336434] | Inactive | 4.90 | – | –
18 | COc1ccc(/C=C/C(=O)c2ccccc2O)c(OC)c1 [CHEMBL143265] | – | – | Active | 5.34
19 | CC(C)(C)OC(=O)N1CCN(c2cc(-c3ccc(Oc4ccccc4)cc3)n[nH]2)CC1 [CHEMBL394241] | Inactive | 4.89 | – | –
20 | CCN(CC)CCCc1ccc(Nc2c3ccccc3nc3ccccc23)cc1 [CHEMBL89519] | – | – | Active | 6.52
21 | COc1ccccc1C(=O)N/N=C/c1cccnc1 [CHEMBL2382042] | – | – | Active | 5.71
22 | COc1ccc(/C=N/NC(=O)c2ccc(-c3nnc(-c4ccccc4OC)o3)cc2)cc1 [CHEMBL4099467] | Inactive | 4.13 | – | –
23 | CCN(CC)CCCNc1ccc(Nc2c3ccccc3nc3ccccc23)cc1 [CHEMBL89458] | – | – | Active | 6.70
24 | Cc1ccccc1Cc1nnc2sc(-c3ccc(Cl)cc3)nn12 [CHEMBL1256802] | Inactive | 4.00 | – | –
25 | COc1ccc(/C=C/C(=O)c2ccc(O)cc2)c(OC)c1 [CHEMBL434066] | – | – | Active | 5.40
26 | Cc1ccc2cc(C3CC(c4sccc4Br)=NN3)c(Cl)nc2c1 (stereo not shown) [CHEMBL2236143] | – | – | Active | 5.68
27 | CCOC(=O)C1=C(C)NC(C)=C(C(=O)OC)C1c1cccc([N+](=O)[O-])c1 (stereo not shown) [CHEMBL475534] | Inactive | 4.48 | – | –
28 | O=C(/C=C/c1ccc(-n2ccnc2)cc1)c1ccc(F)c(F)c1 [CHEMBL569571] | – | – | Active | 5.54
29 | O=C(c1ccc(Cl)s1)N1CCN(c2nnc(-c3ccc([N+](=O)[O-])o3)s2)CC1 [CHEMBL516307] | Inactive | 4.93 | – | –
30 | Cc1ccc2cc(/C=C/C(=O)c3ccc(Br)s3)c(Cl)nc2c1 [CHEMBL1940859] | – | – | Active | 5.64
31 | COc1ccc(-n2nnc3c(N4CCCC(O)C4)nc(CC4CCCCC4)nc32)cc1 (stereo not shown) [CHEMBL2171512] | Active | 5.07 | – | –

Reference: PMC8196580, “Identification of Kaurane-Type Diterpenes as Inhibitors of Leishmania Pteridine Reductase I” (Molecules, 2021)
